# Reference: PubChem BioAssay AID1963977 (Molecular Pharmacology Branch, DTP, NCI, 2024)
# Test system: 624824-186-R-J3-PDC multicell spheroids, viability
# Assay: Anticancer human tumor 624824-186-R-J3-PDC patient-derived colon adenocarcinoma cell line growth inhibition [PI3K]
# Settings: for IC50: curve of first compound; for viability, T/C: stronger effect = lower value
# Summary of the method: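 Complex 3D spheroids (cancer cells + endothelial HUVEC + mesenchymal stem cells); drug pairs of targeted agent x inavolisib/alpelisib/duvelisib/copanlisib; half-log series from ~Cmax, max 10 microM if Cmax unknown; endpoint viability.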
# [1] = second compound 0.0316 µM, first compound 0.0316 µM
# [2] = second compound 0.0316 µM, first compound 0.1 µM
# [3] = second compound 0.0316 µM, first compound 0.316 µM
# [4] = second compound 0.0316 µM, first compound 1 µM
# [5] = second compound 0.0316 µM, first compound 3.16 µM
# [6] = second compound 0.0316 µM, first compound 10 µM
# [7] = second compound 0.1 µM, first compound 0.0316 µM
# [8] = second compound 0.1 µM, first compound 0.1 µM
# [9] = second compound 0.1 µM, first compound 0.316 µM
# [10] = second compound 0.1 µM, first compound 1 µM
# [11] = second compound 0.1 µM, first compound 3.16 µM
# [12] = second compound 0.1 µM, first compound 10 µM
# [13] = second compound 0.316 µM, first compound 0.0316 µM
# [14] = second compound 0.316 µM, first compound 0.1 µM
# [15] = second compound 0.316 µM, first compound 0.316 µM
# [16] = second compound 0.316 µM, first compound 1 µM
# [17] = second compound 0.316 µM, first compound 3.16 µM
# [18] = second compound 0.316 µM, first compound 10 µM
# [19] = second compound 1 µM, first compound 0.0316 µM
# [20] = second compound 1 µM, first compound 0.1 µM
# [21] = second compound 1 µM, first compound 0.316 µM
# [22] = second compound 1 µM, first compound 1 µM
# [23] = second compound 1 µM, first compound 3.16 µM
# [24] = second compound 1 µM, first compound 10 µM
# [25] = second compound 3.16 µM, first compound 0.0316 µM
# [26] = second compound 3.16 µM, first compound 0.1 µM
# [27] = second compound 3.16 µM, first compound 0.316 µM
# [28] = second compound 3.16 µM, first compound 1 µM
# [29] = second compound 3.16 µM, first compound 3.16 µM
# [30] = second compound 3.16 µM, first compound 10 µM
# [31] = second compound 10 µM, first compound 0.0316 µM
# [32] = second compound 10 µM, first compound 0.1 µM
# [33] = second compound 10 µM, first compound 0.316 µM
# [34] = second compound 10 µM, first compound 1 µM
# [35] = second compound 10 µM, first compound 3.16 µM
# [36] = second compound 10 µM, first compound 10 µM
# 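Also: spheroids exposed to agents for seven days before luminescence read.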
# 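For viability, T/C in this document: luminescent signal used as a stand-in for spheroid viability; percent viability relative to DMSO vehicle control wells taken as 100%.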
compound,measurement,setting,value
C=CC(=O)N1CCN(c2nc(=O)n(-c3c(C)ccnc3C(C)C)c3nc(-c4c(O)cccc4F)c(F)cc23)C(C)C1 (centres undefined) + Cc1nc(NC(=O)N2CCCC2C(N)=O)sc1-c1ccnc(C(C)(C)C(F)(F)F)c1,IC50,second compound 0.0316 µM,> 10 µM
same,IC50,second compound 0.1 µM,> 10 µM
same,IC50,second compound 0.316 µM,> 10 µM
same,IC50,second compound 1 µM,> 10 µM
same,IC50,second compound 3.16 µM,> 10 µM
same,IC50,second compound 10 µM,> 10 µM
same,"viability, T/C",[1],103%
same,"viability, T/C",[2],108%
same,"viability, T/C",[3],106%
same,"viability, T/C",[4],94%
same,"viability, T/C",[5],107%
same,"viability, T/C",[6],113%
same,"viability, T/C",[7],112%
same,"viability, T/C",[8],101%
same,"viability, T/C",[9],95.5%
same,"viability, T/C",[10],110%
same,"viability, T/C",[11],113%
same,"viability, T/C",[12],105%
same,"viability, T/C",[13],109%
same,"viability, T/C",[14],109%
same,"viability, T/C",[15],116%
same,"viability, T/C",[16],106%
same,"viability, T/C",[17],103%
same,"viability, T/C",[18],103%
same,"viability, T/C",[19],103%
same,"viability, T/C",[20],108%
same,"viability, T/C",[21],104%
same,"viability, T/C",[22],116%
same,"viability, T/C",[23],105%
same,"viability, T/C",[24],101%
same,"viability, T/C",[25],83.6%
same,"viability, T/C",[26],92.8%
same,"viability, T/C",[27],90.9%
same,"viability, T/C",[28],78.7%
same,"viability, T/C",[29],95.6%
same,"viability, T/C",[30],78.5%
same,"viability, T/C",[31],68.4%
same,"viability, T/C",[32],69%
same,"viability, T/C",[33],71.2%
same,"viability, T/C",[34],76.1%
same,"viability, T/C",[35],69.8%
same,"viability, T/C",[36],65.3%
CC(Cn1ccc(-c2ccc(C#N)c(Cl)c2)n1)NC(=O)c1cc(C(C)O)[nH]n1 (centres undefined) + Cc1nc(NC(=O)N2CCCC2C(N)=O)sc1-c1ccnc(C(C)(C)C(F)(F)F)c1,IC50,second compound 0.0316 µM,> 10 µM
same,IC50,second compound 0.1 µM,> 10 µM
same,IC50,second compound 0.316 µM,> 10 µM
same,IC50,second compound 1 µM,> 10 µM
same,IC50,second compound 3.16 µM,> 10 µM
same,IC50,second compound 10 µM,> 10 µM
same,"viability, T/C",[1],101%
same,"viability, T/C",[2],107%
same,"viability, T/C",[3],102%
same,"viability, T/C",[4],104%
same,"viability, T/C",[5],104%
same,"viability, T/C",[6],113%
same,"viability, T/C",[7],108%
same,"viability, T/C",[8],105%
same,"viability, T/C",[9],108%
same,"viability, T/C",[10],102%
same,"viability, T/C",[11],107%
same,"viability, T/C",[12],109%
same,"viability, T/C",[13],107%
same,"viability, T/C",[14],101%
same,"viability, T/C",[15],104%
same,"viability, T/C",[16],93.1%
same,"viability, T/C",[17],115%
same,"viability, T/C",[18],107%
same,"viability, T/C",[19],111%
same,"viability, T/C",[20],101%
same,"viability, T/C",[21],109%
same,"viability, T/C",[22],101%
same,"viability, T/C",[23],101%
same,"viability, T/C",[24],98.7%
same,"viability, T/C",[25],86.4%
same,"viability, T/C",[26],91.5%
same,"viability, T/C",[27],88.3%
same,"viability, T/C",[28],91.4%
same,"viability, T/C",[29],79.3%
same,"viability, T/C",[30],86.1%
same,"viability, T/C",[31],72.4%
same,"viability, T/C",[32],75.6%
same,"viability, T/C",[33],66.5%
same,"viability, T/C",[34],67.3%
same,"viability, T/C",[35],67.3%
same,"viability, T/C",[36],62.4%
